Like-named read-outs stand apart in the source and are kept apart here.
Experiments:
[1] = Study CL-005 in subjects with onychomycosis, plasma PK; format: in vivo; conditions: human; for AUC(0-t): read-out: AUC0-8; for concentration at 12 weeks: after 12 weeks; for concentration at 12 weeks / concentration at 24 weeks: read-out: plasma exposure; for concentration at 24 weeks: after 24 weeks
Experimental: Within each treatment group, oteseconazole plasma exposures increased throughout the dosing regimen from Day 1 to Week 12 or 24. […] Mean Cmax and AUC0-8 values after the Day 14 dose (completion of the loading dose phase of the study) were similar for the 300 mg 12-week and 300 mg 24-week treatment groups, and for the 600 mg 12-week and 600 mg 24-week treatment groups, as expected.

[2] = Study CL-017 plasma PK; format: in vivo, human; conditions: for Tmax: Median
Experimental: Oteseconazole mean (SD) plasma concentration during the intense PK sampling period on Day 1 peaked at 4 hours postdose (1425.8 [672.05] μg/L) and decreased slightly by 8 hours postdose (1301.06 [782.76] μg/L). On Day 2, mean (SD) oteseconazole plasma concentrations were 697.7 (264.40) μg/L at predose, then increased to 1895.0 (640.00) μg/L at 4 hours postdose, and decreased to 1555.6 (392.68) μg/L by 8 hours postdose (FIG. 6).
Over the period of Day 14 to Week 50, oteseconazole plasma concentrations were measured at Day 14, Week 14 (end of dosing), and Week 50 (end of follow-up period). Oteseconazole mean (SD) plasma concentration increased from 1396.9 (709.00) μg/L at Day 14 to 2679.3 (1318.94) μg/L at Week 14 before decreasing to 873.4 (534.49) μg/L at Week 50 (FIG. 7).
Median Tmax occurred at 4.00 hours on Day 2; however, Tmax occurred in a narrower range (2.00 to 8.00 hours) compared with that observed on Day 1. The AUC0-8 was 7570 h*μg/L and 11700 h*μg/L, for Day 1 and Day 2, respectively (Table 17).

[3] = Study CL-003 in subjects with tinea pedis, plasma PK; format: in vivo, human; conditions: for AUC(0-t): read-out: AUC0−8
Experimental: Oteseconazole was slowly absorbed, with median time to peak plasma concentration values that ranged from 5.0 to 6.0 hours after dosing on Days 1 and 14 for all treatments. […] The Cmax values on Day 1 were similar between the mid- and high-dose treatments, since the first dose on that day was 600 mg for each treatment.

[4] = Phase 2a acute VVC study, safety; format: in vivo, human; conditions: administered for 3 days
Experimental: Oteseconazole has previously been evaluated in a Phase 2a multi-center, randomized, double-blind, active-controlled, parallel-group, dose-ranging study in patients with moderate-to-severe acute VVC. A total of 55 subjects with moderate-to-severe acute VVC (severity score ≥6 and a positive fungal KOH test) participated in the study across 4 dose groups: 1) oteseconazole 300 mg qd for 3 days: 2) 600 mg qd for 3 days: 3) 600 mg bid for 3 days; or 4) a single dose of fluconazole 150 mg followed by matching placebo. […] No safety signals of clinical concern were observed from the safety assessments.

[5] = test system: recurrent VVC episode; test: Study CL-006 culture-verified recurrent VVC episodes; format: in vivo, human; conditions: 150 mg, 3 months dose group (150 mg QD 7 days, then 150 mg QW 11 weeks)
Excerpt: The dosing regimen yielded oteseconazole plasma concentrations that provided marked efficacy across all dose groups, with no differences in the extent of efficacy noted.

[6] = Study CL-011 plasma concentrations; format: in vivo; conditions: human
Experimental: A total of 217 subjects were randomized to receive oteseconazole and 109 subjects were randomized to receive placebo. All subjects were followed for 36 weeks after the end of treatment. Blood samples for determination of oteseconazole plasma concentrations were collected at Baseline, Day 14, Week 12, Week 24, Week 36, and Week 48 (End of Study (EOS]). Following the loading dose regimen of 150 mg oteseconazole QD for 7 days, the mean (SD) oteseconazole plasma concentration at Day 14 was 1676.2 (876.27) μg/L.

[7] = test system: Tinea Pedis; test: Study CL-003 therapeutic cure of tinea pedis; format: in vivo, human
Excerpt: Even though the target concentrations were not reached for either dose group in this study, oteseconazole was efficacious in treating TP.

[8] = 300 mg, Day 14, Low Dose (300 mg), 12 weeks
[9] = 300 mg, Day 14, Low Dose (300 mg), 24 weeks
[10] = 600 mg, Day 14, High Dose (600 mg), 12 weeks
[11] = 600 mg, Day 14, High Dose (600 mg), 24 weeks
[12] = human, plasma, High Dose 1200 mg/300 mg, Day 1
[13] = human, plasma, High Dose 1200 mg/300 mg, Day 14
[14] = human, plasma, Low Dose 200 mg/50 mg, Day 1
[15] = human, plasma, Low Dose 200 mg/50 mg, Day 14
[16] = human, plasma, Mid Dose 600 mg/150 mg, Day 1
[17] = human, plasma, Mid Dose 600 mg/150 mg, Day 14

O[C@@](Cn1cnnn1)(c1ccc(F)cc1F)C(F)(F)c1ccc(-c2ccc(OCC(F)(F)F)cc2)cn1 [Oteseconazole, oteseconazole]
Cmax [1, 8]: 5.12 µg/mL | AUC(0-t) [1, 8]: 36.7 µg·h/mL | Cmax [1, 9]: 5.51 µg/mL | AUC(0-t) [1, 9]: 40.1 µg·h/mL | Cmax [1, 10]: 8.29 µg/mL | AUC(0-t) [1, 10]: 59.7 µg·h/mL | Cmax [1, 11]: 8.39 µg/mL | AUC(0-t) [1, 11]: 61.6 µg·h/mL | Tmax ([1]; Day 14, High Dose (600 mg), 12 weeks): 5 h | Tmax ([1]; Day 14, Low Dose (300 mg), 12 weeks): 5 h | concentration at 12 weeks ([1]; 300 mg 12-week treatment group): 6.75 µg/mL | concentration at 12 weeks ([1]; 600 mg 12-week treatment group): 12.3 µg/mL | concentration at 24 weeks ([1]; 300 mg 24-week treatment group): 9.23 µg/mL | concentration at 24 weeks ([1]; 600 mg 24-week treatment group): 15.6 µg/mL | Clast ([2]; 3 × 150 mg (450 mg), Day 2, Geometric Mean): 1.51 µg/mL | AUC(0-t) ([2]; human, plasma, oral, 450 mg, 3 × 150 mg (450 mg), Day 2, Geometric Mean, read-out: AUC0-8): 11.7 µg·h/mL | concentration at 4 h ([2]; human, plasma, oral, 450 mg, Day 2, 4 hours postdose, read-out: mean (SD) plasma concentration): 1.9 µg/mL | concentration at 8 h ([2]; human, plasma, oral, 450 mg, Day 2, 8 hours postdose, read-out: mean (SD) plasma concentration): 1.56 µg/mL | AUC(0-t) ([2]; human, plasma, oral, 450 mg, Day 2, as given in text, read-out: AUC0-8): 11.7 µg·h/mL | AUC(0-t) ([2]; human, plasma, oral, 600 mg, 600 mg dose on Day 1, as given in text, read-out: AUC0-24): 20.6 µg·h/mL | AUC(0-t) ([2]; human, plasma, oral, 600 mg, 4 × 150 mg (600 mg), Day 1, Geometric Mean, N 8, read-out: AUC0-24): 20.6 µg·h/mL | AUC(0-t) ([2]; human, plasma, oral, 600 mg, 4 × 150 mg (600 mg), Day 1, Geometric Mean, read-out: AUC0-8): 7.57 µg·h/mL | concentration at 24 h ([2]; human, plasma, oral, 600 mg, 4 × 150 mg (600 mg), Day 1, Geometric Mean, read-out: Clast): 0.651 µg/mL | concentration at 24 h ([2]; human, plasma, oral, 600 mg, 24 hours after 600 mg Day 1 dose (predose Day 2), read-out: plasma concentrations, range across subjects): 0.354 to 1.15 µg/mL | concentration at 4 h ([2]; human, plasma, oral, 600 mg, Day 1, 4 hours postdose, read-out: mean (SD) plasma concentration): 1.43 µg/mL | concentration at 8 h ([2]; human, plasma, oral, 600 mg, Day 1, 8 hours postdose, read-out: mean (SD) plasma concentration): 1.3 µg/mL | AUC(0-t) ([2]; human, plasma, oral, 600 mg, Day 1, as given in text, read-out: AUC0-8): 7.57 µg·h/mL | concentration at 24 h ([2]; human, plasma, oral, 600 mg, Day 2, predose, read-out: mean (SD) plasma concentration): 0.698 µg/mL | concentration at 14 day ([2]; human, plasma, oral, Day 14, read-out: mean (SD) plasma concentration): 1.4 µg/mL | concentration at 14 week ([2]; human, plasma, oral, Week 14 (end of dosing), read-out: mean (SD) plasma concentration): 2.68 µg/mL | concentration at 50 week ([2]; human, plasma, oral, Week 50 (end of follow-up period), read-out: mean (SD) plasma concentration): 0.873 µg/mL | Cmax ([2]; human, plasma, oral, 3 × 150 mg (450 mg), Day 2, Geometric Mean): 2.01 µg/mL | Tmax ([2]; human, plasma, oral, 3 × 150 mg (450 mg), Day 2): 4 h | Cmax ([2]; human, plasma, oral, 4 × 150 mg (600 mg), Day 1, Geometric Mean): 1.62 µg/mL | Tmax ([2]; human, plasma, oral, 4 × 150 mg (600 mg), Day 1): 4.01 h | increase in Cmax, high-dose versus mid-dose treatment ([3]; Day 14, 2-fold dose difference): 15% | increase in concentration (Cmax), mid versus low dose ([3]; Days 1 and 14, 3-fold increase in dose): 2 fold | Cmax achieved as share of target ([3]; high-dose group): about 25% | Cmax [3, 12]: 0.757 µg/mL | Tmax [3, 12]: 5 h | AUC(0-t) [3, 12]: 3.54 µg·h/mL | Cmax [3, 13]: 2.52 µg/mL | Tmax [3, 13]: 5.02 h | AUC(0-t) [3, 13]: 17.6 µg·h/mL | Cmax [3, 14]: 0.366 µg/mL | Tmax [3, 14]: 6 h | AUC(0-t) [3, 14]: 1.68 µg·h/mL | Cmax [3, 15]: 1.09 µg/mL | Tmax [3, 15]: 5 h | AUC(0-t) [3, 15]: 7.95 µg·h/mL | Cmax [3, 16]: 0.679 µg/mL | Tmax [3, 16]: 6 h | AUC(0-t) [3, 16]: 3.32 µg·h/mL | Cmax [3, 17]: 2.18 µg/mL | Tmax [3, 17]: 5 h | AUC(0-t) [3, 17]: 16.1 µg·h/mL | half-life ([3]; human, plasma, blood sampling for 168 days (4032 hours), read-out: terminal phase half-life, range of median values): 86.7 to 172 days | Cmax achieved as share of target ([3]; mid-dose group): about 50% | serious adverse events [4]: no serious adverse events | safety and tolerability ([4]; 300 mg qd to 600 mg bid): safe and well tolerated | subjects with a culture-verified recurrent VVC episode by Week 48 [5]: 4.8% | concentration at 12 week ([6]; 150 mg, Week 12, maximum concentration, read-out: mean (SD) plasma concentration): 3.4 µg/mL | concentration at 48 week ([6]; 150 mg, Week 48, read-out: mean (SD) plasma concentration): 1.15 µg/mL | concentration at 14 day ([6]; Day 14, after loading 150 mg QD for 7 days, read-out: mean (SD) plasma concentration): 1.68 µg/mL | therapeutic cure ([7]; high dose group): 21.4% | therapeutic cure ([7]; low dose group): 16.7% | therapeutic cure ([7]; mid dose group): 8.3%

Reference: US20240398773A1, “COMPOSITIONS COMPRISING OTESECONAZOLE” (Mycovia Pharmaceuticals, Inc., priority 2021, published 2024)
